Laboratory results from ChEMBL document CHEMBL4842357, “Discovery of Novel Apigenin-Piperazine Hybrids as Potent and Selective Poly (ADP-Ribose) Polymerase-1 (PARP-1) Inhibitors for the Treatment of Cancer” (J Med Chem, 2021).
pIC50: −log10 of the molar value. Activity calls are given as the source filed them. No cut-off for these calls is given here.

What was measured:
[1] = Oral bioavailability in Sprague-Dawley rat at 50 mg/kg; format: ADME, organism-based; settings: in vivo
[2] = Toxicity in ICR mouse assessed as effect on main visceral organs at 1000 mg/kg, ig administered for 14 days by H and E analysis; format: organism-based; settings: in vivo, po, 336 h, time 14 day
[3] = Drug distribution in tumor of mouse xenografted with human SK-OV-3 cells at 100 mg/kg, po after 1 hr by LC-MS analysis; format: ADME, organism-based, Neoplasm; settings: in vivo
[4] = MRT in Sprague-Dawley rat at 50 mg/kg, po; format: ADME, organism-based; settings: in vivo
[5] = Drug distribution in liver of mouse xenografted with human SK-OV-3 cells at 100 mg/kg, po after 9 hrs by LC-MS analysis; format: ADME, organism-based; settings: in vivo
[6] = Drug distribution in spleen of mouse xenografted with human SK-OV-3 cells at 100 mg/kg, po after 9 hrs by LC-MS analysis; format: ADME, organism-based; settings: in vivo
[7] = Cmax in Sprague-Dawley rat at 50 mg/kg, po; format: ADME, organism-based; parameters: route oral, dose 50 mg/kg; settings: in vivo
[8] = Subacute toxicity in ICR mouse assessed as weight abnormalities at 1000 mg/kg, po administered for 14 days; format: organism-based; settings: in vivo, 336 h, time 14 day
[9] = Half life in Sprague-Dawley rat at 5 mg/kg, iv; format: ADME, organism-based; settings: in vivo
[10] = Tmax in Sprague-Dawley rat at 50 mg/kg, po; format: ADME, organism-based; settings: in vivo
[11] = Acute toxicity in ICR mouse assessed as abnormalities at 200 to 1000 mg/kg, po administered for 14 days; format: organism-based; settings: in vivo, 336 h, dose 200-1000 mg/kg, time 14 day
[12] = Toxicity in BALB/c nude mouse xenografted with human A549 cells assessed as change in body weight at 25 to 50 mg/kg, po administered once daily measured for 28 days in presence of CBP; format: organism-based; settings: in vivo, 672 h, dose 25-50 mg/kg, time 28 day
[13] = Subacute toxicity in ICR mouse assessed as clinical abnormalities at 1000 mg/kg, po administered for 14 days; format: organism-based; settings: in vivo, 336 h, time 14 day
[14] = Tmax in Sprague-Dawley rat at 5 mg/kg, iv; format: ADME, organism-based; settings: in vivo
[15] = AUC(0 to infinity) in Sprague-Dawley rat at 5 mg/kg, iv; format: ADME, organism-based; parameters: route intravenous, time infinity, dose 5 mg/kg; settings: in vivo
[16] = AUC(0 to infinity) in Sprague-Dawley rat at 50 mg/kg, po; format: ADME, organism-based; parameters: time infinity, route oral, dose 50 mg/kg; settings: in vivo
[17] = Cmax in Sprague-Dawley rat at 5 mg/kg, iv; format: ADME, organism-based; parameters: route intravenous, dose 5 mg/kg; settings: in vivo
[18] = Half life in Sprague-Dawley rat at 50 mg/kg, po; format: ADME, organism-based; settings: in vivo
[19] = Total plasma clearance in Sprague-Dawley rat at 5 mg/kg, iv; format: ADME, organism-based
[20] = Volume of distribution at steady state in Sprague-Dawley rat at 5 mg/kg, iv; format: ADME, organism-based; settings: in vivo, read-out: Vdss
[21] = Subacute toxicity in ICR mouse assessed as death at 1000 mg/kg, po administered for 14 days; format: organism-based; settings: in vivo, 336 h, time 14 day
[22] = MRT in Sprague-Dawley rat at 5 mg/kg, iv; format: ADME, organism-based; settings: in vivo
[23] = Toxicity in BALB/c mouse xenografted with human SK-OV-3 cells assessed as change in body weight at 25 to 50 mg/kg, po administered once daily measured for 28 days; format: organism-based; settings: in vivo, 672 h, dose 25-50 mg/kg, time 28 day
SK-OV-3 [24] = assay: Antitumor activity against human SK-OV-3 cells xenografted in BALB/c nude mouse assessed as relative tumor volume at 50 mg/kg, po administered once daily for 12 days; format: functional; settings: time 12 day
[25] = Acute toxicity in ICR mouse assessed as mortality at 200 to 1000 mg/kg, po administered for 14 days; format: organism-based; settings: in vivo, 336 h, dose 200-1000 mg/kg, time 14 day
SK-OV-3 [26] = assay: Cytotoxicity against human BRCA-1 deficient SK-OV-3 cells assessed as reduction in cell viability at 0.1 to 10 uM incubated for 48 hrs by MTT assay; format: functional, cell-based; settings: dose 0.1-10 µM
[27] = biological target: Poly [ADP-ribose] polymerase 1 (Homo sapiens, UniProt P09874); assay: Inhibition of recombinant human full-length PARP-1 using biotinylated substrate
Homo sapiens = species on record: Homo sapiens; assay: Selectivity index, ratio of IC50 for inhibition of recombinant human full-length PARP-2 to IC50 for inhibition of recombinant human full-length PARP-1
[28] = Acute toxicity in ICR mouse assessed as death at 1000 mg/kg, po administered only once at day 1 and measured after 5 to 8 days; format: organism-based; settings: in vivo, time 5-8 day
A549 [29] = assay: Cytotoxicity against human A549 cells assessed as reduction in cell viability at 0.1 to 10 uM incubated for 48 hrs by MTT assay; format: functional, cell-based; settings: dose 0.1-10 µM
A549 [30] = assay: Cytotoxicity against human A549 cells assessed as induction of CBP cytotoxicity incubated for 48 hrs in presence of CBP by MTT assay; format: functional, cell-based; settings: dose 0.1-10 µM
[31] = biological target: Poly [ADP-ribose] polymerase 2 (Homo sapiens, UniProt Q9UGN5); assay: Inhibition of recombinant human full-length PARP-2 using biotinylated substrate
Poly [ADP-ribose] polymerase 2, sequence (Q9UGN5 whole entry): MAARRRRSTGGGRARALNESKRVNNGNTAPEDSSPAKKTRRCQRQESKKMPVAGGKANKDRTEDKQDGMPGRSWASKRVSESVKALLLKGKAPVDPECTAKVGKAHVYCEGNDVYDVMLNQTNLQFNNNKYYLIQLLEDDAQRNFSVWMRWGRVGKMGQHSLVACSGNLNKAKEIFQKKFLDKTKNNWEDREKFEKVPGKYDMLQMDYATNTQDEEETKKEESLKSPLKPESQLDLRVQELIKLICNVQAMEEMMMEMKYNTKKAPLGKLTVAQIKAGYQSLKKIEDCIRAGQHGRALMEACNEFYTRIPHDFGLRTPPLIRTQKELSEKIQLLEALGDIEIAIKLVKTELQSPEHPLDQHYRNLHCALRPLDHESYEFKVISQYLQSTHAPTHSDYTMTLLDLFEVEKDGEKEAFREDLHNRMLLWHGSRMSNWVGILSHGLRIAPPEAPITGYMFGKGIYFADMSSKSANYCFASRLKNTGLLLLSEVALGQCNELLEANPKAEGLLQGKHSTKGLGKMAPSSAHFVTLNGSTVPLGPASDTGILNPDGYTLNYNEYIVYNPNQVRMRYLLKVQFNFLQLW

Poly [ADP-ribose] polymerase 1, sequence (P09874 whole entry): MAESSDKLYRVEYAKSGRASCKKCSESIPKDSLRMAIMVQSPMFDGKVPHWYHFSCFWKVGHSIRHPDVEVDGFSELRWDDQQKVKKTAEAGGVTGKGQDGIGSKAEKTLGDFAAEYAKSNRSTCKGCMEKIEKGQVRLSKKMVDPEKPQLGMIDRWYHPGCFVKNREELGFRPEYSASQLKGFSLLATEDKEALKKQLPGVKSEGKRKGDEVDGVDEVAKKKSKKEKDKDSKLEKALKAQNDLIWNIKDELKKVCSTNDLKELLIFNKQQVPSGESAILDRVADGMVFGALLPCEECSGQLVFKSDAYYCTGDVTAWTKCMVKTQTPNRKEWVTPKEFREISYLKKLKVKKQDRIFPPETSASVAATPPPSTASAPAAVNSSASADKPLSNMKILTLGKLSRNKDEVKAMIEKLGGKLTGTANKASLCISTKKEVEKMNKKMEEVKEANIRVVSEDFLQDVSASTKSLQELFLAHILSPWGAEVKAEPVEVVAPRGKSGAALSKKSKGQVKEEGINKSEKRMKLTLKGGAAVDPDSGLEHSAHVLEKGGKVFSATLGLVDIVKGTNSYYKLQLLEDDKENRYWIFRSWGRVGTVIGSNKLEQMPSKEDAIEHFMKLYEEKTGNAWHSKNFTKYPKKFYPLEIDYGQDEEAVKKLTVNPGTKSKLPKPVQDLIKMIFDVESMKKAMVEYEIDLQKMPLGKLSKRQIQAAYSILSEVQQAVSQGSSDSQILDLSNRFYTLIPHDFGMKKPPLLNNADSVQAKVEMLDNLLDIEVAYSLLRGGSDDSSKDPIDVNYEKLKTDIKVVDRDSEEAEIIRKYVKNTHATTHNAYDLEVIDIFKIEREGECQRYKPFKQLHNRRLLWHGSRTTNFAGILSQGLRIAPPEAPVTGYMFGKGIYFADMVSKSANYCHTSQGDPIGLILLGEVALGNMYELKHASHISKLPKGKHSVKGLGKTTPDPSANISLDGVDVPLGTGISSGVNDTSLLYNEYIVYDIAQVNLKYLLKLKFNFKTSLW

Structure (SMILES): Cl.Cl.O=c1cc(-c2ccc(O)cc2)oc2c(CN3CCN(Cc4cccs4)CC3)c(O)cc(O)c12
- bioavailability [1]: 26.5%
- Activity [2]: Non-Toxic
- Drug uptake [3]: Active
- MRT [4]: 13 h
- Drug uptake [5]: Active
- Drug uptake [6]: Not Active
- Cmax [7]: 470 ng/mL
- Activity [8]: Non-Toxic
- half-life [9]: 3.19 h
- Tmax [10]: 1.5 h
- Activity [11]: Non-Toxic
- Activity [12]: Non-Toxic
- Activity [13]: Non-Toxic
- Tmax [14]: 1.8 min
- AUC(0-inf) [15]: 1370 ng·h/mL
- AUC(0-inf) [16]: 3630 ng·h/mL
- Cmax [17]: 2880 ng/mL
- half-life [18]: 10.7 h
- clearance [19]: 60.5 mL/min/kg
- Vd [20]: 11.4 L/kg
- Activity [21]: Non-Toxic
- MRT [22]: 3.14 h
- Activity [23]: Non-Toxic
- Activity (SK-OV-3 [24]): 0.74
- Activity [25]: Non-Toxic

Structure (SMILES): O=c1cc(-c2ccc(O)cc2)oc2c(CN3CCN(Cc4ccco4)CC3)c(O)cc(O)c12
- Activity (SK-OV-3 [26]): Active
- pIC50 [27]: 7.75
- Ratio IC50 (Homo sapiens): 72.6
- Activity [28]: Toxic
- Activity (A549 [29]): inactive
- Activity (A549 [30]): Dose-Dependent Effect
- pIC50 [31]: 5.89
